Results published in patent publication US10933147B2, “Imaging of metastatic or recurrent cancer” (Blue Earth Diagnostics Limited, priority 2015, dated 2021).

Columns and labels:
[1] = PET time activity curves in reference regions; format: in vivo, human; details: regions in marrow (ilium), muscle (gluteus), and bladder; remained constant throughout the imaging period
Protocol: (§1) Regions in marrow (ilium), muscle (gluteus), and bladder reached a plateau at 4.5 minutes that remained constant throughout the imaging period.
(§2) The time required for [^18F]-FACBC to accumulate in tumour cells in steps a) and c) of the aspects described above may be about 5 minutes or less after [^18F]-FACBC is administered. Optionally, the time taken for [^18F]-FACBC to accumulate is 3 to 5 minutes, for example 4 minutes. This therefore allows image acquisition to start 3 to 5 minutes after administration, for example 4 minutes after [^18F]-FACBC administration. […] Regions in marrow (ilium), muscle (gluteus), and bladder reached a plateau at 4.5 minutes that remained constant throughout the imaging period.

[2] = test system: known prostate carcinoma recurrence; test: PET time activity curves in prostate carcinoma recurrence; format: in vivo, human
Protocol: as §1, §2

[3] = human, in vivo
Protocol: FIGS. 1a and 1b show accumulation of FACBC in the Virchow's node when the FACBC is injected into the left arm.
In some embodiments, the right arm may be preferred as stasis in the axillary vein upon injection in the left arm may be misinterpreted as a metastatic lymph node called Virchow's node, which is located in the left supraclavicular fossa (the area above the left clavicle, or collar bone). For example, FIGS. 1a and 1b show accumulation of FACBC in the Virchow's node when the FACBC is injected into the left arm.

time at which plateau is reached [1]: 4.5 min | plateau of uptake lasts to ([2]; known prostate carcinoma recurrence, after the maximum): 30 min | gradual clearance ([2]; known prostate carcinoma recurrence, after the plateau, out to 60 minutes): 9 %/min | time of maximum uptake ([2]; rapid uptake in known prostate carcinoma recurrence): 4.5 min | standardized uptake value (SUV) [3]: > 200
Structure (SMILES): N[C@]1(C(=O)O)C[C@@H](F)C1 [fluciclovine, anti-1-amino-3-^18F-fluorocyclobutane-1-carboxylic acid]
